In US7001905B2, “Substituted diarylamines as MEK inhibitors” (Warner-Lambert Company, priority 2000, dated 2006):

Assays:
MEK = target: T1, MEK (Homo sapiens, UniProt Q02750); assay: in vitro MEK assay; type: biochemical
T1 construct: no tag is given for the 2D mutant
Procedure, shortened: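 GST-MEK (10 μg) or activated GST-MEK-2E (S218E/S222E, 5 μg) phosphorylates kinase-dead GST-MAPK-KA (K71A, 5 μg) with 10 μM [γ-32P]ATP in 50 mM Tris pH 7.5 for 15 min at 30 °C. Read-out: SDS-PAGE, autoradiography and scintillation counting of excised bands.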

T1 sequence (Q02750 whole entry S218D/S222D, form open): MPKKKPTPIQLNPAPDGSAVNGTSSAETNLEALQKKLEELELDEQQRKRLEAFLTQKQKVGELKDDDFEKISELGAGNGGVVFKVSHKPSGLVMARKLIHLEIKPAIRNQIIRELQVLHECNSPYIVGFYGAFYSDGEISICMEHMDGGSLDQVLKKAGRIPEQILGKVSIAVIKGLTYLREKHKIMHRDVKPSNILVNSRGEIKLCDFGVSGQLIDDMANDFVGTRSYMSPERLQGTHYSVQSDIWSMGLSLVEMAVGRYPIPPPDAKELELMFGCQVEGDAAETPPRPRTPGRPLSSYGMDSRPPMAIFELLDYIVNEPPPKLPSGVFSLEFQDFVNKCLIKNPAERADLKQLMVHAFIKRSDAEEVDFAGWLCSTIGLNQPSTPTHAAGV

SMILES	IC50 (MEK) [nM]	melting point [°C]	in vitro MEK assay: % inhibition @ 1 μM (MEK) [%]
CNC(=O)c1cc(C(=O)O)c(Nc2ccc(I)cc2C)c(F)c1F [Example 3, 4,5-Difluoro-6-(-4-iodo-2-methyl-phenylamino)-N-methyl-isophthalamic acid]	2400	254 to 259	
CNC(=O)c1cc(C(=O)NOCC2CC2)c(Nc2ccc(I)cc2C)c(F)c1F [Example 4, N^1-Cycloprolylmethoxy-4,5-difluoro-6-(4-iodo-2-methyl-phenylamino)-N^3-methyl-isophthalamide]	1100	198 to 202	
COc1ccc(N(C)C(=O)c2cc(C(=O)O)c(Nc3ccc(I)cc3C)c(F)c2F)cc1 [Example 94, 4,5-Difluoro-6-(4-iodo-2-methyl-phenylamino)-N-(4-methoxy-phenyl)-N-methyl-isophthalamic acid]			92
Cc1cc(I)ccc1Nc1c(C(=O)O)cc(C(=O)N(C)CCc2c[nH]c3ccccc23)c(F)c1F [Example 95, 4,5-Difluoro-N-[2-(1H-indol-3-yl)-ethyl]-6-(4-iodo-2-methyl-phenylamino)-N-methyl-isophthalamic acid]			77
Cc1cc(I)ccc1Nc1c(C(=O)O)cc(C(=O)Nc2ccc(S(N)(=O)=O)cc2)c(F)c1F [Example 96, 4,5-Difluoro-6-(4-iodo-2-methyl-phenylamino)-N-(4-sulfamoyl-phenyl)-isophthalamic acid]			85
Cc1cc(I)ccc1Nc1c(C(=O)O)cc(C(=O)N2CCSC2)c(F)c1F [Example 98, 3,4-Difluoro-2-(4-iodo-2-methyl-phenylamino)-5-(1-thiazolidin-3-yl-methanoyl)-benzoic acid]	87		86
Cc1cc(I)ccc1Nc1c(C(=O)O)cc(C(=O)N2CCSCC2)c(F)c1F [Example 99]	150		82
Cc1cc(I)ccc1Nc1c(C(=O)O)cc(C(=O)N2CCCC(O)C2)c(F)c1F (stereo not drawn) [Example 101, 3,4-Difluoro-5-[1-(3-hydroxy-piperidin-1-yl)-methanoyl]-2-(4-iodo-2-methyl-phenylamino)-benzoic acid]			75

Now from value to compound:

IC50 (MEK) [nM]	melting point [°C]	in vitro MEK assay: % inhibition @ 1 μM (MEK) [%]	SMILES
6600	219 to 223		CNC(=O)c1cc2c(c(F)c1F)N(c1ccc(I)cc1C)COC2=O [Example 2, 7,8-Difluoro-1-(4-iodo-2-methyl-phenyl)-4-oxo-1,4-dihydro-2H-benzo[d][1,3]oxazine-6-carboxylic acid methylamide]
4300	78 to 80		Cc1cc(I)ccc1Nc1c(C(=O)NOCC2CC2)cc(C(=O)N(C)C)c(F)c1F [Example 6, N^1-Cyclopropylmethoxy-4,5-difluoro-6-(4-iodo-2-methyl-phenylamino)-N^3,N^3-dimethyl-isophthalamide]
		81	Cc1cc(I)ccc1Nc1c(C(=O)O)cc(C(=O)NCC2CCCO2)c(F)c1F (stereo not drawn) [Example 97, 4,5-Difluoro-6-(4-iodo-2-methyl-phenylamino)-N-(tetrahydro-furan-2-ylmethyl)-isophthalamic acid]
		25	Cc1cc(I)ccc1Nc1c(C(=O)O)cc(C(=O)NCCN2CCCCC2)c(F)c1F [Example 102]
